Experimental data as given in patent publication US5356923A, “1-hydroxy-4(3-cyclopentyloxy-4-methoxyphenyl)-2-pyrrolidone and anti-hypertensive use thereof” (Orion-yhtyma Oy, priority 1990, dated 1994).

What was measured:
[1] = system: PDE IV; assay: Inhibition of PDE IV; assay type: biochemical; conditions: PDE isoenzymes isolated using DEAE-Sepharose chromatography
Description: (§1) PDE isoenzymes were isolated using DEAE-Sepharose chromatography as described by Reeves et al. in Biochem. J., 241 (1987), pp. 535-541. PDE IV and PDE III activities were determined by the method of Alajoutsijarvi and Nissinen as described in Anal. Biochem. 165 (1987), pp. 128-132.

[2] = target: T1, PDE III (Homo sapiens, UniProt Q14432); assay: Inhibition of PDE III; assay type: biochemical; conditions: PDE isoenzymes isolated using DEAE-Sepharose chromatography
T1 construct: PDE isoenzymes were isolated using DEAE-Sepharose chromatography; from tissue; the cited Reeves et al. 1987 used human and guinea-pig cardiac ventricle (own knowledge)
T1 sequence (Q14432 whole entry): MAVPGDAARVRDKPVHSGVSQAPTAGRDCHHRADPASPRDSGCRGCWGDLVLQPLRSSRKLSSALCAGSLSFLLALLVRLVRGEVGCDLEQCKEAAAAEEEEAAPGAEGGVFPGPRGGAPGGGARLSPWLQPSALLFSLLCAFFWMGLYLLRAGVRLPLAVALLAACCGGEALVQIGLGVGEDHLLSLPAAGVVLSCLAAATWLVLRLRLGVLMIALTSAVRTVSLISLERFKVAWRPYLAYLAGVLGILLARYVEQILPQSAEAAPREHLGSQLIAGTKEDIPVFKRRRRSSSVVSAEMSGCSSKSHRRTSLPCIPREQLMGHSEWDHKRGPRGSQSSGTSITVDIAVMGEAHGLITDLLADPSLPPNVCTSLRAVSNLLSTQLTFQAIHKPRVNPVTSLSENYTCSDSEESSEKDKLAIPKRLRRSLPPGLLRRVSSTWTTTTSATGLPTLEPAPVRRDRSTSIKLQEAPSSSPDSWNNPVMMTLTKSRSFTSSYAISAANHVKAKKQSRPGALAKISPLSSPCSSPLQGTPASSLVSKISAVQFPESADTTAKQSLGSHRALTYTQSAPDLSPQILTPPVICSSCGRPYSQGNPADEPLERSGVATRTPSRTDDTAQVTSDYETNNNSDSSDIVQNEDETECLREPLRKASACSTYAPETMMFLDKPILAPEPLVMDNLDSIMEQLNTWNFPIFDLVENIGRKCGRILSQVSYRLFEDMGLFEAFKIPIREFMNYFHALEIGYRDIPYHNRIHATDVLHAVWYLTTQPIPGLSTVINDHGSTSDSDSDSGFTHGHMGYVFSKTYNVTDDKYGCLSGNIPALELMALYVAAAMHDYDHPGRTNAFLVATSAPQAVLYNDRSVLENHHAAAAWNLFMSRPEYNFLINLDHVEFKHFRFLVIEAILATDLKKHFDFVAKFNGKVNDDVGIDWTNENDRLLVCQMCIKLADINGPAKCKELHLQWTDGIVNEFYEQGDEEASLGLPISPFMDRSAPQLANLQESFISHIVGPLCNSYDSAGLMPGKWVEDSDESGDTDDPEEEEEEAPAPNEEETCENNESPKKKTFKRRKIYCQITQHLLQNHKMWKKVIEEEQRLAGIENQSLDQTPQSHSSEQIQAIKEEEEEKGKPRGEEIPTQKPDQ
Description: as §1

[3] = system: LTB4 synthesis in human basophilic leucocytes; assay: Inhibition of arachidonic acid induced LTB4 synthesis; assay type: cell-based; conditions: Leucocyte, HPLC, UV 271 nm
Description: (§2) The inhibition of arachidonic acid induced LTB4 and LTC4 synthesis in human basophilic leucocytes was determined with liquid chromatography and UV detection. LTB4 and LTC4 were separated first by HPLC with a Spherisorb ODS colon (5 μm, 150×4.6 mm) and Spectroflow 400 Kratos Analytical pump. The flow rate was 1 ml/min and the solvents were methanol/water/acetic acid […], pH 5.0 for LTB4 and methanol/water/acetic acid/phosphoric acid (65/35/0.07/0.03), pH 5.5 for LTC4. The peaks were analyzed further with Spektroflow 773 Kratos Analytical UV absorbance detector and leukotrienes were detected at the wavelength of 271 nm and 280 nm for LTB4 and LTC4, respectively.

[4] = system: LTC4 synthesis in human basophilic leucocytes; assay: Inhibition of arachidonic acid induced LTC4 synthesis; assay type: cell-based; conditions: Leucocyte, HPLC, UV 280 nm
Description: as §2

[5] = system: PDE IV; conditions: prior art compound, no test shown; cited from earlier work
[6] = target: T1, PDE III; conditions: prior art compound, no test shown; cited from earlier work

Structure (SMILES)	IC50 [1]	IC50 [2]	IC50 [3]	IC50 [4]	PDE IV selectivity (in words) [5]	inhibition of PDE III (in words) [6]
COc1ccc(C2CC(=O)N(O)C2)cc1OC1CCCC1 (stereo not drawn) [Example 1, 1-Hydroxy-4-(3-cyclopentyloxy-4-methoxyphenyl)-2-pyrrolidone]	0.9 µM	205 µM	3.7 µM	3.2 µM		
COc1ccc(C2CNC(=O)C2)cc1OC1CCCC1 (stereo not drawn) [rolipram, 4-[3-(cyclopentyloxy)-4-methoxyphenyl]-2-pyrrolidone]					not selective PDE IV inhibitor	also inhibits PDE III
